Measurements reported in ChEMBL document CHEMBL1687943, “Synthesis of new glycyrrhetinic acid derived ring A azepanone, 29-urea and 29-hydroxamic acid derivatives as selective 11β-hydroxysteroid dehydrogenase 2 inhibitors” (Bioorg Med Chem, 2011).

How the values were obtained:
[1] = target: T1, 11-beta-hydroxysteroid dehydrogenase 1 (Homo sapiens, UniProt P28845); details: HEK293, at 200 nM
Target sequence in this assay (P28845 whole entry, looked up): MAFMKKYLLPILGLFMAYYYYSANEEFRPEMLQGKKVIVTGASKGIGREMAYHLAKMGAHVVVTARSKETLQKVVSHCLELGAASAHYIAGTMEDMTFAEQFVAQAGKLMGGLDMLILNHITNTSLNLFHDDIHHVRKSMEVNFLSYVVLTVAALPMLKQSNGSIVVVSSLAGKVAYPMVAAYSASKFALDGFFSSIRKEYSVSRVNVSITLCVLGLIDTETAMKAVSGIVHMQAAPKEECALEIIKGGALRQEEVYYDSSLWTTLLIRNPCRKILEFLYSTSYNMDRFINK
Description: Inhibition of human recombinant 11beta-HSD1 expressed in HEK293 cells assessed as residual conversion of [1,2-[3H]cortisone to cortisol at 200 nM after 10 mins by scintillation counting

[2] = target: T2, 11-beta-hydroxysteroid dehydrogenase type 2 (Homo sapiens) (UniProt P80365); details: HEK293, at 200 nM
T2 sequence (whole entry): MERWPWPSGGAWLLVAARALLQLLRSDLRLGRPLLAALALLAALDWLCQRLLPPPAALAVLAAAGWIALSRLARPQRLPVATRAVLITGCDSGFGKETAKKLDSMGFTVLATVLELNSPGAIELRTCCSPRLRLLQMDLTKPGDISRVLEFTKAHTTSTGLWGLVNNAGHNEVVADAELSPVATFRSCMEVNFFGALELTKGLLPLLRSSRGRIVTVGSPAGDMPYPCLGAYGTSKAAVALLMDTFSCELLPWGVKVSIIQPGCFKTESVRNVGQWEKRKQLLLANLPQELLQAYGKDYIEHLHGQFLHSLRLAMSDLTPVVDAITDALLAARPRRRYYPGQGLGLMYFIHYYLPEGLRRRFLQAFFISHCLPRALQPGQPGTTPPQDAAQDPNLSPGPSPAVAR
Description: Inhibition of human 11beta-HSD2 expressed in HEK293 cells assessed as residual conversion of [1,2,6,7-[3H]cortisol to cortisone at 200 nM after 10 mins by scintillation counting

[3] = target: T1, 11-beta-hydroxysteroid dehydrogenase 1; details: HEK293, at 1000 nM
Target sequence in this assay (P28845 whole entry, looked up): as the sequence (P28845 whole entry, looked up) above
Description: Inhibition of human recombinant 11beta-HSD1 expressed in HEK293 cells assessed as residual conversion of [1,2-[3H]cortisone to cortisol at 1000 nM after 10 mins by scintillation counting

[4] = target: T2, 11-beta-hydroxysteroid dehydrogenase type 2 (Homo sapiens); details: HEK293, at 1000 nM
Description: Inhibition of human 11beta-HSD2 expressed in HEK293 cells assessed as residual conversion of [1,2,6,7-[3H]cortisol to cortisone at 1000 nM after 10 mins by scintillation counting

[5] = target: T1, 11-beta-hydroxysteroid dehydrogenase 1; experiment: Inhibition of human recombinant 11beta-HSD1 expressed in HEK293 cells assessed as conversion of [1,2-[3H]cortisone to cortisol after 10 mins by scintillation counting; type: cell-based
Target sequence in this assay (P28845 whole entry): as the sequence (P28845 whole entry, looked up) above

[6] = target: T3, 11-beta-hydroxysteroid dehydrogenase type 2 (Homo sapiens, UniProt P80365); experiment: Inhibition of human 11beta-HSD2 expressed in HEK293 cells assessed as conversion of [1,2,6,7-[3H]cortisol to cortisone after 10 mins by scintillation counting; type: cell-based
T3 sequence (P80365 whole entry): T2 sequence (whole entry)

[7] = target: T1, 11-beta-hydroxysteroid dehydrogenase 1; details: HEK293, at 1 µM
Target sequence in this assay (P28845 whole entry, looked up): as the sequence (P28845 whole entry, looked up) above
Description: Inhibition of human recombinant 11beta-HSD1 expressed in HEK293 cells assessed as conversion of [1,2-[3H]cortisone to cortisol at 1 uM after 10 mins by scintillation counting

residual activity [1] [%]	residual activity [2] [%]	residual activity [3] [%]	Compound	also measured
96	110	–	CC(=O)O[C@H]1CC[C@]2(C)[C@H]3C(=O)C=C4[C@@H]5C[C@@](C)(NC(=O)N(C)O)CC[C@]5(C)CC[C@@]4(C)[C@]3(C)CC[C@H]2C1(C)C	–
92	34	–	CC(=O)O[C@H]1CC[C@]2(C)[C@H]3C(=O)C=C4[C@@H]5C[C@@](C)(NC(=O)NO)CC[C@]5(C)CC[C@@]4(C)[C@]3(C)CC[C@H]2C1(C)C	–
102	93	–	CC(=O)O[C@H]1CC[C@]2(C)[C@H]3C(=O)C=C4[C@@H]5C[C@@](C)(NC(=O)N(CCO)CCO)CC[C@]5(C)CC[C@@]4(C)[C@]3(C)CC[C@H]2C1(C)C	–
90	20	–	CC(=O)O[C@H]1CC[C@]2(C)[C@H]3C(=O)C=C4[C@@H]5C[C@@](C)(NC(=O)NS(C)(=O)=O)CC[C@]5(C)CC[C@@]4(C)[C@]3(C)CC[C@H]2C1(C)C	–
97	38	–	CC(=O)O[C@H]1CC[C@]2(C)[C@H]3C(=O)C=C4[C@@H]5C[C@@](C)(NC(=O)NCCO)CC[C@]5(C)CC[C@@]4(C)[C@]3(C)CC[C@H]2C1(C)C	–

The remaining lines, values behind:

Compound	residual activity [1] [%]	residual activity [2] [%]	residual activity [3] [%]	also measured
CC1(C)NC(=O)CC[C@]2(C)[C@H]3C(=O)C=C4[C@@H]5C[C@@](C)(C(=O)O)CC[C@]5(C)CC[C@@]4(C)[C@]3(C)CC[C@@H]12	–	–	43	residual activity [4]: 21%
CC1(C)[C@@H](Oc2noc(=O)[nH]2)CC[C@]2(C)[C@H]3C(=O)C=C4[C@@H]5C[C@@](C)(NC(N)=O)CC[C@]5(C)CC[C@@]4(C)[C@]3(C)CC[C@@H]12	81	24	–	IC50 [5]: > 40 µM; IC50 [6]: > 4 µM
CC(=O)O[C@H]1CC[C@]2(C)[C@H]3C(=O)C=C4[C@@H]5C[C@@](C)(C(=O)O)CC[C@]5(C)CC[C@@]4(C)[C@]3(C)CC[C@H]2C1(C)C	–	–	12	–
CC1(C)C(=O)CC[C@]2(C)[C@H]3C(=O)C=C4[C@@H]5C[C@@](C)(C(=O)O)CC[C@]5(C)CC[C@@]4(C)[C@]3(C)CC[C@@H]12	–	–	36	–
CC(=O)N[C@H]1CC[C@]2(C)[C@H]3C(=O)C=C4[C@@H]5C[C@@](C)(C(=O)O)CC[C@]5(C)CC[C@@]4(C)[C@]3(C)CC[C@H]2C1(C)C	–	–	36	residual activity [4]: 0.2%
CC1(C)C(=O)CC[C@]2(C)[C@H]3C(=O)C=C4[C@@H]5C[C@@](C)(NC(N)=O)CC[C@]5(C)CC[C@@]4(C)[C@]3(C)CC[C@@H]12	–	–	–	IC50 [5]: > 10 µM
CN(O)C(=O)[C@@]1(C)CC[C@]2(C)CC[C@]3(C)C(=CC(=O)[C@@H]4[C@@]5(C)CCC(=O)NC(C)(C)[C@@H]5CC[C@]43C)[C@@H]2C1	73	–	–	IC50 [5]: > 40 µM
CC1(C)[C@@H](O)CC[C@]2(C)C3=CC(=O)[C@H]4[C@@H]5C[C@@](C)(C(=O)O)CC[C@]5(C)CC[C@@]4(C)[C@]3(C)CC[C@@H]12	77	85	–	–
CC1(C)[C@@H](O)CC[C@]2(C)[C@H]3C(=O)C=C4[C@@H]5C[C@@](C)(C(=O)O)CC[C@]5(C)CC[C@@]4(C)[C@]3(C)CC[C@@H]12	–	–	16	inhibition [7]: 83.9%
CC1(C)[C@@H](OC(=O)CCC(=O)O)CC[C@]2(C)[C@H]3C(=O)C=C4[C@@H]5C[C@@](C)(C(=O)O)CC[C@]5(C)CC[C@@]4(C)[C@]3(C)CC[C@@H]12	–	–	12	–
CC1(C)/C(=N/O)CC[C@]2(C)[C@H]3C(=O)C=C4[C@@H]5C[C@@](C)(C(=O)O)CC[C@]5(C)CC[C@@]4(C)[C@]3(C)CC[C@@H]12	–	–	–	residual activity [4]: 1%
